According to patent US5399580A, “Therapeutic nucleosides-uses” (Burroughs Wellcome Co., priority 1993, dated 1995):
Like-named read-outs stand apart in the source and are kept apart here.

Assays:
B cells (IM9) = assay: Inhibition of the growth of B cells (IM9); type: cell-based; settings: Homo sapiens, IM-9; read-out: I50, growth of IM9 cells
Description: (§1) The compounds of the invention were tested for inhibition of the growth of T cells (Molt 4) and B cells (IM9) by the method of Averett, D., Journal of Virological Methods, 23, (1989), 263-276.

[1] = system: Human cytomegalovirus (HCMV); assay: Anti-HCMV plaque reduction assay in MRC5 cells; type: cell-based; settings: Human betaherpesvirus 5, read-out: IC50, anti-HCMV activity (50% inhibitory concentration)
Description: Human cytomegalovirus (HCMV) is assayed in monolayers of MRC5 cells (human embryonic lung) in multiwell trays. Activity of compounds is determined in the plaque reduction assay, in which a cell monolayer is infected with a suspension of HCMV. A range of concentrations of the compound to be tested (of known molarity) is then incorporated into the carboxymethyl cellulose overlay. Plaque numbers of each concentration are expressed as percentage of the control and a dose-response curve is drawn. From this curve the 50% inhibitory concentration (IC50) is estimated.

T cells (Molt 4) = assay: Inhibition of the growth of T cells (Molt 4); type: cell-based; settings: Homo sapiens, read-out: I50, growth of Molt 4 cells
Description: as §1

[2] = system: HBV (HepG2 2.2.15, P5A cell line); assay: Anti-HBV assay: HBV DNA in supernatants of HBV-producing cells, immunoaffinity capture, PCR and hybrid-capture detection; type: cell-based, Hepatitis B virus; settings: HepG2 2.2.15, P5A cells, compound on days 1, 3, 5, 7
Description: Anti-HBV activity of compounds of formula (I) and (I-1) was determined with a high-capacity assay for assessing efficacy. Supernatants from growing HBV-producing cells (HepG2 2.2.15, P5A cell line) in 96-well plates are applied to microtiter plate wells which have been coated with a specific monoclonal antibody to HBV surface antigen (HBsAg). Virus particles present in the supernatants bind to the antibody and remain immobilized while other debris is removed by washing. These virus particles are then denatured to release HBV DNA strands which are subsequently amplified by the polymerase chain reaction and detected with a colorimetric hybrid-capture assay. Quantitation is achieved through fitting of a standard curve to dilutions of a cell supernatant with known HBV DNA content. By comparing HBV DNA levels of untreated control cell supernatants with supernatants containing a compound of formula (I) or (I-1), a measure of anti-HBV effectiveness is obtained.
HBV producer cells, 2500 cells/well, were seeded in 96-well culture dishes in RPMI/10% fetal bovine serum/2 mM glutamine (RPMI/10/2:). […] Twenty-five uL HBV standard media dilutions in RPMI/10/2 were added to 2 rows of wells to serve as an internal standard curve for quantitation, and the plates were sealed and incubated at 4° C. overnight. […]
Polymerase chain reaction (Saiki, R. K. et al., Science, 239 (4839) 487-91 (1988)) was carried out on 5uL samples, using a Perkin Elmer PCR kit. […] Primers were chosen from conserved regions in the HBV genome, as determined by alignment of several sequences. […]
PCR products were detected with horse radish peroxidase-labeled oligonucleotide probes (Synthecell Corp., Rockville, Md. 20850), which hybridize to biotinylated strands of denatured PCR products directly in streptavidin-coated microtiter plate wells, using essentially the method of Holodiniy, M. et al., Bio Techniques, 12 (1) 37-39 (1992). […] Quantities of HBV DNA present in the original samples were calculated by comparison with standards. […]

[3] = Hepatitis B virus, HepG2 2.2.15, read-out: IC50 (median inhibitory concentration, 50 percent decrease in HBV DNA), approximate IC50

OC[C@@H]1C[C@H](n2c(Br)nc3cc(Cl)c(Cl)cc32)[C@@H](O)[C@H]1O (relative stereo) [Ex. 4, (±)-(1R*,2S*,3S*,5S*)-5-(2-Bromo-5,6-dichloro-1H-benzimidazol-1-yl)-3-(hydroxymethyl)-1,2-cyclopentanediol]
IC50 (B cells (IM9)): 48 µM | IC50 [1]: 1.9 µM | IC50 (T cells (Molt 4)): 39 µM

OC[C@@H]1C[C@@H](O)[C@H](n2c(Br)nc3cc(Cl)c(Cl)cc32)C1 (relative stereo) [Ex. 13, (±)-(1R*,2R*,4S*)-2-(2-Bromo-5,6-dichloro-1H-benzimidazol-1-yl)-4-(hydroxymethyl)cyclo-pentanol]
IC50 (B cells (IM9)): 88 µM | IC50 [1]: 1 µM | IC50 [2, 3]: 5 µM | IC50 (T cells (Molt 4)): 32 µM

OC[C@@H]1C[C@H](n2c(Br)nc3cc(Cl)c(Cl)cc32)[C@@H](O)[C@H]1O [Ex. 69, (1R,2S,3S,5S)-5-(2-Bromo-5,6-dichloro-1H-benzimidazol-1-yl)-3-(hydroxymethyl)-1,2-cyclopentanediol]
IC50 (B cells (IM9)): 35 µM | IC50 [2, 3]: 0.72 µM | IC50 ([2]; read-out: IC50 (median inhibitory concentration, 50 percent decrease in HBV DNA), approximate IC50): 1.3 µM | IC50 (T cells (Molt 4)): 29 µM
